The text below walks through data of patent US10064909B2, “Compositions and methods for chronic use of a weight-gaining compound” (priority 2015, dated 2018).

Each structure is given as a SMILES string.

Series [1] in a line: Safety and effectiveness of daily capromorelin in cats with CKD for 90 days (field study, Example 9). The series is classed as in vivo. The method, then: This study was to confirm the safety and effectiveness of AT-002 (capromorelin) in cats under field conditions using a dose of 2 mg/kg administered once daily for 90 days. The study tested the hypotheses that AT-002 will maintain or increase bodyweight, improve body condition score (BCS), improve muscle condition score (MCS), improve appetite and/or improve quality of life (QoL) in cats. This was a double-masked, randomized, placebo-controlled, multi-site, proof of concept field study.
This study enrolled cats diagnosed with chronic kidney disease (CKD) and a minimum 6-month history of losing weight. The enrollment target was for a minimum of 15 evaluable cases in the AT-002 group and 15 evaluable cases in the Control Product (CP; placebo) group. The Investigator and all study personnel were masked to treatment code (A or B) and treatment group (AT-002 or CP). The Dispenser and Owner remained blinded to treatment group (AT-002 or CP).
Cats were treated with a dosage of 2 mg/kg body weight of AT-002 (AT-002) or a placebo (CP) formulation at the same dose volume as the AT-002 once daily for 90±3 days. Day 0 was the first day of dosing. Cats were evaluated on Day 0, Day 14±1, Day 30±2, Day 60±3 and Day 90±3. The primary effectiveness variable was change in bodyweight from Day 0 through Day 90±3. Secondary effectiveness variables included BCS, MCS, owner appetite assessments and owner QoL assessments.
After enrollment, each case was randomly assigned to AT-002 or CP in a 1:1 ratio. The enrollment target was at least 30 evaluable cases (15 AT-002 and 15 CP) per the study randomization schedule across all sites.
Cats included in the study were spayed/neutered cats of any age and breed with a documented historical decrease in bodyweight over the previous 6 months, and a diagnosis of chronic kidney disease (IRIS stages II, III or IV). Cats on medications for certain stable, chronic conditions were allowed. Excluded from the study were cats in crisis or moribund, cats with documented and uncontrolled hyperthyroidism or inflammatory bowel disease, cats in which food intake is contraindicated (i.e. suspected foreign body, gastrointestinal surgery), cats with dental disease severe enough to impair food intake, cats with diabetes, and cats currently receiving prohibited medications.
The Owner maintained the feeding regime the cat was on at study enrollment. No special foods and no special feeding schedule were required. Water was available ad libitum. The cat's diet was monitored and a “Diet History” completed when the Investigator interviewed the Owner at screening/qualification (Day 0), Day 30±2, Day 60±3 and Day 90±3 or at the last study visit (i.e. early removal).
Bodyweight was measured in pounds to the nearest tenth decimal place as part of the physical examination at screening/qualification/Day 0, Day 14±1, Day 30±2, Day 60±3 and Day 90±3 and at the time of any unscheduled visit or early removal from the study. […]

Series [2] in a line: Dose titration laboratory study (10 days): food consumption and bodyweight. The series is classed as in vivo. The settings on record: cats. The method, then:
This study defined a capromorelin oral solution dose regime that provides increased food intake and weight gain and the accompanying desired profile of IGF-1 serum levels. Laboratory adult cats were housed individually and divided into five groups (3/sex/group; n=6/group). Cats were dosed once daily for 10 consecutive days with either placebo, 1 mg/kg AT-002, 2 mg/kg AT-002, 3 mg/kg AT-002 or 4 mg/kg AT-002. The test article was a flavored solution formulation very similar to the final formulation. Study activities are summarized at Table 5.
The percent change in food consumption from baseline (average of Day −3, Day −2, and Day −1) compared to the treatment period (average of Day 1 through Day 10) was calculated for each cat, and is summarized at Table 6. The mean percent change from baseline to the treatment period for the placebo group increased 13.0%.
The percent change in bodyweight from Day −1 compared to Day 10 was calculated for each cat, and is summarized at table 7. The mean percent change for the placebo group was −0.35%, indicating a decrease in weight. […] The 4 mg/kg AT-002 group approached statistical significance (p=0.0502)

Regarding `CN1N=C2CCN(C(=O)[C@@H](COCc3ccccc3)NC(=O)C(C)(C)N)C[C@@]2(Cc2ccccc2)C1=O.O=C(O)C(O)C(O)C(=O)O` [capromorelin, N-[(2R)-1-[(3aR)-2-methyl-3-oxo-3a-(phenylmethyl)-6,7-dihydro-4H-pyrazolo[4,3-c]pyridin-5-yl]-1-oxo-3-(phenylmethoxy)propan-2-yl]-2-amino-2-methylpropanamide L-tartrate], the “adverse events with evidence for a potential relationship to treatment” value in series [1] (2 mg/kg once daily, 90 days) is “increased salivation and potentially vomiting”. Further, the tolerability entry in series [1] (2 mg/kg once daily, 90 days) is “well-tolerated”. Besides, the “body condition score, muscle condition score, owner appetite assessment and quality of life parameters” value in series [1] (2 mg/kg once daily, vs placebo) is recorded as “no meaningful statistical differences”. In addition, in series [1] (2 mg/kg oral once daily, 90 days), the “bodyweight during the treatment period” value is given as “gained weight”. In series [1] (2 mg/kg, Day 0 to Day 90), the “mean descriptive (monthly) quality of life score” value is reported as “remained the same”. Further, the “Food Consumption, Percent Change From Baseline” value is on record as 30.54% in series [2] (1 mg/kg SID, Day 1-10 vs Days -3 to -1); 45.53% in series [2] (2 mg/kg SID, Day 1-10 vs Days -3 to -1); 54.04% in series [2] (3 mg/kg SID, Day 1-10 vs Days -3 to -1); 78.82% in series [2] (4 mg/kg SID, minus 5F1, Day 1-10 vs Days -3 to -1). The “Bodyweight, Percent Change From Baseline” value in series [2] (1 mg/kg SID, Day -1 to Day 10) stood at 3.07%; in series [2] (2 mg/kg SID, Day -1 to Day 10), 3.66%; in series [2] (3 mg/kg SID, Day -1 to Day 10) it was 5.72%; in series [2] (4 mg/kg SID, minus 5F1, Day -1 to Day 10), 3.57%.
